Test results from the NIST ThermoML archive (doi:10.1021/je700145e).

Conditions: Liquid

CCCCC(C)O (configuration not stated) [2-hexanol]
Conditions	mass density [kg/m3]
313.13 K, 1010 kPa	799.26
313.13 K, 2006 kPa	800.05
313.13 K, 2999 kPa	800.83
313.13 K, 4008 kPa	801.59
313.13 K, 4999 kPa	802.35
313.13 K, 5986 kPa	803.12
313.13 K, 7000 kPa	803.86
313.13 K, 8010 kPa	804.64
313.13 K, 9026 kPa	805.38
313.13 K, 10004 kPa	806.09
313.13 K, 11005 kPa	806.84
313.13 K, 12001 kPa	807.56
313.13 K, 13010 kPa	808.28
313.13 K, 14002 kPa	808.98
313.13 K, 14998 kPa	809.67
313.13 K, 16001 kPa	810.39
313.13 K, 17006 kPa	811.08
313.13 K, 18000 kPa	811.7
313.13 K, 19005 kPa	812.39
313.13 K, 20015 kPa	813.1
313.13 K, 21029 kPa	813.74
313.13 K, 22004 kPa	814.4
323.09 K, 1037 kPa	791
323.09 K, 2000 kPa	791.79
323.09 K, 3010 kPa	792.63
323.09 K, 4029 kPa	793.48
323.09 K, 5004 kPa	794.27
323.09 K, 6020 kPa	795.1
323.09 K, 7007 kPa	795.84
323.09 K, 8009 kPa	796.68
323.09 K, 9017 kPa	797.48
323.09 K, 10003 kPa	798.25
323.09 K, 11001 kPa	799
323.09 K, 12000 kPa	799.77
323.09 K, 13021 kPa	800.56
323.09 K, 14001 kPa	801.3
323.09 K, 15002 kPa	802
323.09 K, 16000 kPa	802.74
323.09 K, 17004 kPa	803.48
323.09 K, 18008 kPa	804.21
323.09 K, 19001 kPa	804.9
323.09 K, 20011 kPa	805.62
323.09 K, 21003 kPa	806.31
323.09 K, 22004 kPa	807.01
333.04 K, 1055 kPa	782.56
333.04 K, 2007 kPa	783.43
333.04 K, 3005 kPa	784.28
333.04 K, 4007 kPa	785.21
333.04 K, 5015 kPa	786.06
333.04 K, 6009 kPa	786.93
333.04 K, 7006 kPa	787.77
333.04 K, 7998 kPa	788.61
333.04 K, 9006 kPa	789.47
333.04 K, 10004 kPa	790.32
333.04 K, 11007 kPa	791.11
333.04 K, 12012 kPa	791.93
333.04 K, 13003 kPa	792.72
333.04 K, 14008 kPa	793.51
333.04 K, 15005 kPa	794.3
333.04 K, 16001 kPa	795.06
333.04 K, 17006 kPa	795.85
333.04 K, 18010 kPa	796.61
333.04 K, 19002 kPa	797.35
333.04 K, 20000 kPa	798.08
333.04 K, 21000 kPa	798.82
333.04 K, 22004 kPa	799.56
342.98 K, 1032 kPa	774.05
342.98 K, 2015 kPa	775.01
342.98 K, 3012 kPa	775.95
342.98 K, 4017 kPa	776.87
342.98 K, 5013 kPa	777.79
342.98 K, 6012 kPa	778.72
342.98 K, 7025 kPa	779.62
342.98 K, 8000 kPa	780.47
342.98 K, 9000 kPa	781.35
342.98 K, 9996 kPa	782.25
342.98 K, 11020 kPa	783.12
342.98 K, 11999 kPa	783.92
342.98 K, 12996 kPa	784.76
342.98 K, 14007 kPa	785.6
342.98 K, 15003 kPa	786.41
342.98 K, 16005 kPa	787.17
342.98 K, 17002 kPa	787.98
342.98 K, 18010 kPa	788.76
342.98 K, 19005 kPa	789.49
342.98 K, 20010 kPa	790.27
342.98 K, 21006 kPa	791
342.98 K, 22005 kPa	791.75
352.86 K, 1053 kPa	765.06
352.86 K, 2014 kPa	766.05
352.86 K, 3019 kPa	767.09
352.86 K, 4033 kPa	768.08
352.86 K, 4996 kPa	769.01
352.86 K, 6006 kPa	770.06
352.86 K, 7013 kPa	771.02
352.86 K, 8004 kPa	771.95
352.86 K, 9035 kPa	772.93
352.86 K, 10009 kPa	773.84
352.86 K, 11007 kPa	774.75
352.86 K, 12007 kPa	775.66
352.86 K, 12999 kPa	776.54
352.86 K, 14012 kPa	777.47
352.86 K, 15010 kPa	778.33
352.86 K, 16003 kPa	779.21
352.86 K, 17002 kPa	780.07
352.86 K, 18017 kPa	780.92
352.86 K, 19005 kPa	781.75
352.86 K, 20014 kPa	782.58
352.86 K, 21013 kPa	783.39
352.86 K, 22010 kPa	784.18
362.73 K, 1075 kPa	754.97
362.73 K, 2006 kPa	756.02
362.73 K, 3018 kPa	757.16
362.73 K, 4034 kPa	758.26
362.73 K, 5016 kPa	759.29
362.73 K, 6066 kPa	760.41
362.73 K, 6998 kPa	761.37
362.73 K, 8041 kPa	762.44
362.73 K, 9014 kPa	763.43
362.73 K, 10001 kPa	764.37
362.73 K, 11026 kPa	765.39
362.73 K, 12000 kPa	766.35
362.73 K, 13010 kPa	767.31
362.73 K, 13999 kPa	768.28
362.73 K, 15006 kPa	769.21
362.73 K, 16006 kPa	770.12
362.73 K, 17005 kPa	771.02
362.73 K, 18000 kPa	771.92
362.73 K, 19003 kPa	772.82
362.73 K, 20017 kPa	773.7
362.73 K, 21006 kPa	774.56
362.73 K, 22010 kPa	775.42
